Measured values: patent US9889115B2, “Fitness assay and associated methods” (priority 1998, dated 2018)

Assays:
Format in all cases: cell-based
HIV-1BAL = assay: PHA-PBMC assay, p24 Gag protein production; conditions: Human immunodeficiency virus 1; HIV-1BAL, NSI; PHA-PBMC, p24 (Table 3)
[1] = system: multidrug-resistant HIV-1 clinical isolate, patient 22; assay: IC50 against multidrug-resistant clinical isolates (Table 9a); conditions: Human immunodeficiency virus 1
Protocol: (§1) The mutant multidrug-resistant HIV-1 strains corresponding to each patient, numbered 9-35, were genetically analyzed in terms of the nucleic acid sequences of the protease (PR) and a portion of the reverse transcriptase (RT) genes from which mutations in these enzymes were determined. The mutations in the protease and reverse transcriptase of the multidrug-resistant viruses isolated from each patient are shown below in Table 9b.

[2] = system: multidrug-resistant HIV-1 clinical isolate, patient 34; assay: as above; conditions: Human immunodeficiency virus 1
Protocol: as §1

wild-type HIV-1 (WT) = assay: IC50 against wild-type HIV-1 (Table 9a); conditions: Human immunodeficiency virus 1; (WT)
[3] = system: multidrug-resistant HIV-1 clinical isolate, patient 6; assay: PHA-PBMC assay, p24 Gag protein production; conditions: Human immunodeficiency virus 1; Patient/Isolate code 6; PHA-PBMC, p24
Protocol: (§2) The patient profiles are shown below in Table 2.
(§3) To determine protease inhibitory activity against multidrug resistant HIV, the IC50's were measured against a panel of clinically isolated mutant HIV isolates.
(§4) All drug sensitivities were performed in triplicate. In order to determine whether the HIV isolates were syncitium inducing (SI) or non-syncitium inducing (NSI), an aliquot of viral stock supernatant, containing 100 TCID50, was cultured with 1×10^5 MT-2 cells in a 12-well plate. Cultures were maintained for four weeks and were examined for syncytium formation twice a week.

HIV-1ERS104pre = assay: PHA-PBMC assay, p24 Gag protein production; conditions: Human immunodeficiency virus 1; HIV-1ERS104pre, SI; PHA-PBMC, p24
Protocol: as §2, §3, §4

[4] = system: multidrug-resistant HIV-1 clinical isolate, patient 7; assay: PHA-PBMC assay, p24 Gag protein production; conditions: Human immunodeficiency virus 1; Patient/Isolate code 7; PHA-PBMC, p24
Protocol: as §2, §3, §4

[5] = system: multidrug-resistant HIV-1 clinical isolate, patient 1; assay: PHA-PBMC assay, p24 Gag protein production; conditions: Human immunodeficiency virus 1; Patient/Isolate code 1; PHA-PBMC, p24
Protocol: as §2, §3, §4

[6] = system: multidrug-resistant HIV-1 clinical isolate, patient 4; assay: PHA-PBMC assay, p24 Gag protein production; conditions: Human immunodeficiency virus 1; Patient/Isolate code 4; PHA-PBMC, p24
Protocol: as §2, §3, §4

[7] = system: multidrug-resistant HIV-1 clinical isolate, patient 3; assay: PHA-PBMC assay, p24 Gag protein production; conditions: Human immunodeficiency virus 1; Patient/Isolate code 3; PHA-PBMC, p24
Protocol: as §2, §3, §4

[8] = system: multidrug-resistant HIV-1 clinical isolate, patient 2; assay: PHA-PBMC assay, p24 Gag protein production; conditions: Human immunodeficiency virus 1; Patient/Isolate code 2; PHA-PBMC, p24
Protocol: as §2, §3, §4

[9] = system: multidrug-resistant HIV-1 clinical isolate, patient 8; assay: PHA-PBMC assay, p24 Gag protein production; conditions: Human immunodeficiency virus 1; Patient/Isolate code 8; PHA-PBMC, p24
Protocol: as §2, §3, §4

[10] = system: multidrug-resistant HIV-1 clinical isolate, patient 5; assay: PHA-PBMC assay, p24 Gag protein production; conditions: Human immunodeficiency virus 1; Patient/Isolate code 5; PHA-PBMC, p24
Protocol: as §2, §3, §4

[11] = system: multidrug-resistant HIV-1 clinical isolate, patient 15; assay: microbe, parasite or virus in culture; conditions: Human immunodeficiency virus 1; Patient Isolate 15
Protocol: as §1

[12] = system: multidrug-resistant HIV-1 clinical isolate, patient 30; assay: microbe, parasite or virus in culture; conditions: Human immunodeficiency virus 1; Patient Isolate 30
Protocol: as §1

[13] = system: multidrug-resistant HIV-1 clinical isolate, patient 18; assay: microbe, parasite or virus in culture; conditions: Human immunodeficiency virus 1; Patient Isolate 18
Protocol: as §1

[14] = system: multidrug-resistant HIV-1 clinical isolate, patient 35; assay: microbe, parasite or virus in culture; conditions: Human immunodeficiency virus 1; Patient Isolate 35
Protocol: as §1

[15] = system: multidrug-resistant HIV-1 clinical isolate, patient 20; assay: microbe, parasite or virus in culture; conditions: Human immunodeficiency virus 1; Patient Isolate 20
Protocol: as §1

[16] = system: multidrug-resistant HIV-1 clinical isolate, patient 32; assay: microbe, parasite or virus in culture; conditions: Human immunodeficiency virus 1; Patient Isolate 32
Protocol: as §1

[17] = system: multidrug-resistant HIV-1 clinical isolate, patient 17; assay: microbe, parasite or virus in culture; conditions: Human immunodeficiency virus 1; Patient Isolate 17
Protocol: as §1

[18] = system: multidrug-resistant HIV-1 clinical isolate, patient 33; assay: microbe, parasite or virus in culture; conditions: Human immunodeficiency virus 1; Patient Isolate 33
Protocol: as §1

[19] = system: multidrug-resistant HIV-1 clinical isolate, patient 31; assay: microbe, parasite or virus in culture; conditions: Human immunodeficiency virus 1; Patient Isolate 31
Protocol: as §1

[20] = system: multidrug-resistant HIV-1 clinical isolate, patient 10; assay: microbe, parasite or virus in culture; conditions: Human immunodeficiency virus 1; Patient Isolate 10
Protocol: as §1

[21] = system: multidrug-resistant HIV-1 clinical isolate, patient 9; assay: microbe, parasite or virus in culture; conditions: Human immunodeficiency virus 1; Patient Isolate 9
Protocol: as §1

[22] = system: multidrug-resistant HIV-1 clinical isolate, patient 19; assay: microbe, parasite or virus in culture; conditions: Human immunodeficiency virus 1; Patient Isolate 19
Protocol: as §1

[23] = system: multidrug-resistant HIV-1 clinical isolate, patient 14; assay: microbe, parasite or virus in culture; conditions: Human immunodeficiency virus 1; Patient Isolate 14
Protocol: as §1

[24] = system: multidrug-resistant HIV-1 clinical isolate, patient 28; assay: microbe, parasite or virus in culture; conditions: Human immunodeficiency virus 1; Patient Isolate 28
Protocol: as §1

[25] = system: multidrug-resistant HIV-1 clinical isolate, patient 29; assay: microbe, parasite or virus in culture; conditions: Human immunodeficiency virus 1; Patient Isolate 29
Protocol: as §1

[26] = system: multidrug-resistant HIV-1 clinical isolate, patient 16; assay: microbe, parasite or virus in culture; conditions: Human immunodeficiency virus 1; Patient Isolate 16
Protocol: as §1

[27] = system: multidrug-resistant HIV-1 clinical isolate, patient 27; assay: microbe, parasite or virus in culture; conditions: Human immunodeficiency virus 1; Patient Isolate 27
Protocol: as §1

[28] = system: multidrug-resistant HIV-1 clinical isolate, patient 23; assay: microbe, parasite or virus in culture; conditions: Human immunodeficiency virus 1; Patient Isolate 23
Protocol: as §1

[29] = system: multidrug-resistant HIV-1 clinical isolate, patient 13; assay: microbe, parasite or virus in culture; conditions: Human immunodeficiency virus 1; Patient Isolate 13
Protocol: as §1

[30] = system: multidrug-resistant HIV-1 clinical isolate, patient 11; assay: microbe, parasite or virus in culture; conditions: Human immunodeficiency virus 1; Patient Isolate 11
Protocol: as §1

[31] = system: multidrug-resistant HIV-1 clinical isolate, patient 12; assay: microbe, parasite or virus in culture; conditions: Human immunodeficiency virus 1; Patient Isolate 12
Protocol: as §1

HIV-1LAI = assay: PHA-PBMC assay, p24 Gag protein production; conditions: Human immunodeficiency virus 1; HIV-1LAI, SI; PHA-PBMC, p24 (Table 3)
[32] = system: multidrug-resistant HIV-1 clinical isolate, patient 21; assay: microbe, parasite or virus in culture; conditions: Human immunodeficiency virus 1; Patient Isolate 21
Protocol: as §1

Structure (SMILES): CC(C)(C)NC(=O)[C@@H]1CN(Cc2cccnc2)CCN1C[C@@H](O)C[C@@H](Cc1ccccc1)C(=O)N[C@H]1c2ccccc2C[C@H]1O [IDV, Indinavir]
- IC50 (HIV-1BAL): 5.6 nM
- IC50 [1]: 173 nM
- IC50 [2]: 595 nM
- IC50 (wild-type HIV-1 (WT)): 20 nM
- IC50 [3]: 370 nM
- IC50 (HIV-1ERS104pre): 13 nM
- IC50 [4]: > 1000 nM
- IC50 [5]: > 1000 nM
- IC50 [6]: 240 nM
- IC50 [7]: 460 nM
- IC50 [8]: 240 nM
- IC50 [9]: > 1000 nM
- IC50 [10]: 800 nM
- IC50 [11]: 265 nM
- IC50 [12]: 270 nM
- IC50 [13]: 369 nM
- IC50 [14]: 509 nM
- IC50 [15]: 591 nM
- IC50 [16]: 223 nM
- IC50 [17]: 502 nM
- IC50 [18]: 133 nM
- IC50 [19]: 251 nM
- IC50 [20]: > 1250 nM
- IC50 [21]: 1090 nM
- IC50 [22]: 784 nM
- IC50 [23]: 89 nM
- IC50 [24]: 1040 nM
- IC50 [25]: 569 nM
- IC50 [26]: 384 nM
- IC50 [27]: > 1250 nM
- IC50 [28]: 461 nM
- IC50 [29]: > 1250 nM
- IC50 [30]: 12 nM
- IC50 [31]: > 1250 nM
- IC50 (HIV-1LAI): 19 nM

Structure (SMILES): CC(C)(C)NC(=O)[C@@H]1C[C@@H]2CCCC[C@@H]2CN1C[C@@H](O)[C@H](Cc1ccccc1)NC(=O)[C@H](CC(N)=O)NC(=O)c1ccc2ccccc2n1 [SAQ, Saquinavir]
- IC50 (HIV-1BAL): 3.7 nM
- IC50 [1]: 3 nM
- IC50 [2]: 63 nM
- IC50 (wild-type HIV-1 (WT)): 7 nM
- IC50 [3]: 190 nM
- IC50 (HIV-1ERS104pre): 10 nM
- IC50 [4]: 120 nM
- IC50 [5]: 290 nM
- IC50 [6]: 33 nM
- IC50 [7]: 36 nM
- IC50 [8]: 35 nM
- IC50 [9]: 9 nM
- IC50 [10]: 240 nM
- IC50 [11]: > 312 nM
- IC50 [12]: 191 nM
- IC50 [13]: 39 nM
- IC50 [14]: 61.6 nM
- IC50 [15]: 32 nM
- IC50 [16]: > 312 nM
- IC50 [17]: 107 nM
- IC50 [18]: 59 nM
- IC50 [19]: 74 nM
- IC50 [20]: > 312 nM
- IC50 [21]: > 312 nM
- IC50 [22]: 55 nM
- IC50 [23]: 40 nM
- IC50 [24]: > 312 nM
- IC50 [25]: 50 nM
- IC50 [26]: > 312 nM
- IC50 [27]: > 312 nM
- IC50 [28]: 8 nM
- IC50 [29]: > 312 nM
- IC50 [30]: 1 nM
- IC50 [31]: > 312 nM
- IC50 [32]: 210 nM
- IC50 (HIV-1LAI): 5.4 nM
